# “And” between values parts separate entries of the source, which are not always exact repeats. Identical values can stand only once.
# What was measured:
# Type in all cases: physicochemical
# [1] = Separation of Nd/Pr/Tb/Dy mixture by precipitation using L5 and acetate (Example 22); conditions: for solution after 20 hrs / solution after 2 days: acetate buffer pH=5.8; for solution after 20 hrs composition / solution after 2 days composition: percent molar
# Experimental: A reaction mixture was prepared analogously to Example 21), with the differences being the use of sodium acetate buffer pH=5.8 in place of MOPS pH=7, an additional aliquot taken for analysis after 2 days, and the lack of ICP-OES analysis on the precipitated portions of the solution — that is, only the supernatants were analysed. Otherwise, the reaction was run analogously to Example 21). The percent molar composition of each is also provided, showing the improved selectivity in precipitation under these conditions, compared to Example 21).
# [2] = Separation of Tb/Dy mixture by repeated precipitation using L5 and α-HIBA (Example 20); conditions: for Precipitate concentration [mM] Dy / precipitate concentration [mm] Tb: dissolved to 200 μL
# Experimental: Analogous to Example 19, three reaction mixtures were prepared with the following changes: the rare-earth elements were Tb and Dy, and 0.5 molar equivalents (5 mM reaction concentration) of α-HIBA were used. Otherwise, the experiment was run analogously to Example 19.
# The resulting absolute concentrations of both metals in the supernatants and precipitates, as well as calculated values of the separation factor Dy/Tb according to the formula from Example 11), are summarized in Table 14. […] The average separation factor was 2.32.
# [3] = Separation of binary mixture of rare-earth metals by precipitation from solution using L1 (Example 7); conditions: supernatant
# Experimental: Two series of reaction mixtures were prepared, where one rare-earth metal was held constant (Gd or Lu) while the other was a variable rare-earth metal element (except Pm). […] The well plate was sealed with transparent adhesive tape to prevent evaporation and was anchored to a shaker. The well-plate was shaken for 5 days at room temperature at 900 rpm.
# [4] = Separation of industrially relevant binary mixtures by precipitation using L1, L2 and L3 (Example 10); conditions: supernatant
# Experimental: Analogous to Example 7), three sets of reaction mixtures with two metals and either compound L1, L2, or L3 were prepared in a 96-well plate with the following differences: each well was equipped with one PTFE-coated magnetic stir bar, the well plate was sealed with a silicon cover, and the reaction mixtures were stirred on a magnetic stirrer for 2 days at room temperature. Analogous to Example 7), the well plate was then centrifuged and concentrations of the metals were determined using ICP-OES. […] It is evident from the results that certain degrees of enrichment are achieved for very different combinations of metals, and that ligands L1, L2, and L3 have different selectivities for given combinations of metals.
compound,measurement,setting,value
"O=C(O)CN1CCN(CC(=O)O)CCN(Cc2cccc3ccccc23)CCN(CC(=O)O)CC1 [L5, 2,2′,2″-(10-(naphthalene-1-ylmethyl)-1,4,7,10-tetraazacyklododekane-1,4,7-triyl)triacetic acid]",solution after 20 hrs,[1]; Ln=Dy,5.41 mM
same,solution after 2 days,[1]; Ln=Dy,5.00 mM
same,solution after 20 hrs composition,[1]; Ln=Dy,16.4%
same,solution after 2 days composition,[1]; Ln=Dy,28.1%
same,solution after 20 hrs,[1]; Ln=Nd,17.01 mM
same,solution after 2 days,[1]; Ln=Nd,6.42 mM
same,solution after 20 hrs composition,[1]; Ln=Nd,51.5%
same,solution after 2 days composition,[1]; Ln=Nd,36.1%
same,solution after 20 hrs,[1]; Ln=Pr,4.78 mM
same,solution after 2 days,[1]; Ln=Pr,1.57 mM
same,solution after 20 hrs composition,[1]; Ln=Pr,14.5%
same,solution after 2 days composition,[1]; Ln=Pr,8.8%
same,solution after 20 hrs,[1]; Ln=Tb,5.84 mM
same,solution after 2 days,[1]; Ln=Tb,4.77 mM
same,solution after 20 hrs composition,[1]; Ln=Tb,17.7%
same,solution after 2 days composition,[1]; Ln=Tb,26.9%
same,Supernatant concentration [mM] Dy,"[2]; A, 1st precipitation",1.41 mM and 1.47 mM and 1.59 mM
same,Supernatant concentration [mM] Tb,"[2]; A, 1st precipitation, 5 mM α-HIBA",0.77 mM and 0.86 mM
same,Supernatant concentration [mM] Tb,"[2]; A, 1st precipitation, 5 mM α-HIBA, mean",0.82 mM
same,Precipitate concentration [mM] Dy,"[2]; A, 1st precipitation",3.02 mM and 2.88 mM and 2.92 mM
same,Precipitate concentration [mM] Dy,"[2]; A, 1st precipitation, mean",2.94 mM
same,precipitate concentration [mm] Tb,"[2]; A, 1st precipitation, mean",3.74 mM
same,Supernatant concentration [mM] Dy,"[2]; A, 1st precipitation, mean",1.49 mM
same,Supernatant concentration [mM] Dy,"[2]; B, 2nd precipitation",1.27 mM and 1.30 mM and 1.26 mM
same,Supernatant concentration [mM] Tb,"[2]; B, 2nd precipitation",0.84 mM and 0.90 mM and 0.79 mM
same,Precipitate concentration [mM] Dy,"[2]; B, 2nd precipitation",2.65 mM and 2.72 mM and 2.76 mM
same,Precipitate concentration [mM] Dy,"[2]; B, 2nd precipitation, mean",2.71 mM
same,precipitate concentration [mm] Tb,"[2]; B, 2nd precipitation, mean",4.16 mM
same,Supernatant concentration [mM] Dy,"[2]; C, 3rd precipitation",1.10 mM and 1.20 mM and 1.08 mM
same,Supernatant concentration [mM] Tb,"[2]; C, 3rd precipitation",0.90 mM and 0.98 mM and 0.83 mM
same,Precipitate concentration [mM] Dy,"[2]; C, 3rd precipitation",2.52 mM and 2.42 mM and 2.72 mM
same,Precipitate concentration [mM] Dy,"[2]; C, 3rd precipitation, mean",2.55 mM
same,precipitate concentration [mm] Tb,"[2]; C, 3rd precipitation, mean",4.70 mM
same,Supernatant concentration [mM] Dy,"[2]; C, 3rd precipitation, mean",1.13 mM
"O=C(O)CN1CCN(CC(=O)O)CCN(Cc2ccccc2)CCN(CC(=O)O)CC1 [L1, 2,2′,2″-(10-benzyl-1,4,7,10-tetraazacyclododecane-1,4,7-triyl)triacetic Acid]",[mM] Gd,"[3]; M1=Ce, M2=Gd",0.149 mM
same,[mM] M1,"[3]; M1=Ce, M2=Gd",0.349 mM
same,[mM] Lu,"[3]; M1=Ce, M2=Lu",5.174 mM
same,[mM] M1,"[3]; M1=Ce, M2=Lu",5.195 mM
same,[mM] Gd,"[3]; M1=Dy, M2=Gd",0.196 mM
same,[mM] M1,"[3]; M1=Dy, M2=Gd",0.344 mM
same,[mM] Lu,"[3]; M1=Dy, M2=Lu",5.252 mM
same,[mM] M1,"[3]; M1=Dy, M2=Lu",5.268 mM
same,[mM] Gd,"[3]; M1=Er, M2=Gd",5.127 mM
same,[mM] M1,"[3]; M1=Er, M2=Gd",5.697 mM
same,[mM] Lu,"[3]; M1=Er, M2=Lu",5.298 mM
same,[mM] M1,"[3]; M1=Er, M2=Lu",5.558 mM
same,[mM] Gd,"[3]; M1=Eu, M2=Gd",0.141 mM
same,[mM] M1,"[3]; M1=Eu, M2=Gd",0.157 mM
same,[mM] Lu,"[3]; M1=Eu, M2=Lu",6.000 mM
same,[mM] M1,"[3]; M1=Eu, M2=Lu",5.459 mM
same,[mM] Gd,"[3]; M1=Gd, M2=Gd",0.208 mM
same,[mM] M1,"[3]; M1=Gd, M2=Gd",0.208 mM
same,[mM] Lu,"[3]; M1=Gd, M2=Lu",3.875 mM
same,[mM] M1,"[3]; M1=Gd, M2=Lu",0.325 mM
same,[mM] Gd,"[3]; M1=Ho, M2=Gd",0.219 mM
same,[mM] M1,"[3]; M1=Ho, M2=Gd",0.522 mM
same,[mM] Lu,"[3]; M1=Ho, M2=Lu",5.643 mM
same,[mM] M1,"[3]; M1=Ho, M2=Lu",5.424 mM
same,[mM] Gd,"[3]; M1=La, M2=Gd",0.134 mM
same,[mM] M1,"[3]; M1=La, M2=Gd",0.535 mM
same,[mM] Lu,"[3]; M1=La, M2=Lu",5.188 mM
same,[mM] M1,"[3]; M1=La, M2=Lu",4.968 mM
same,[mM] Gd,"[3]; M1=Lu, M2=Gd",0.291 mM
same,[mM] M1,"[3]; M1=Lu, M2=Gd",4.93 mM
same,[mM] Lu,"[3]; M1=Lu, M2=Lu",5.403 mM
same,[mM] M1,"[3]; M1=Lu, M2=Lu",5.403 mM
same,[mM] Gd,"[3]; M1=Nd, M2=Gd",0.169 mM
same,[mM] M1,"[3]; M1=Nd, M2=Gd",0.249 mM
same,[mM] Lu,"[3]; M1=Nd, M2=Lu",4.301 mM
same,[mM] M1,"[3]; M1=Nd, M2=Lu",0.456 mM
same,[mM] Gd,"[3]; M1=Pr, M2=Gd",0.161 mM
same,[mM] M1,"[3]; M1=Pr, M2=Gd",0.268 mM
same,[mM] Lu,"[3]; M1=Pr, M2=Lu",5.165 mM
same,[mM] M1,"[3]; M1=Pr, M2=Lu",5.067 mM
same,[mM] Gd,"[3]; M1=Sc, M2=Gd",0.295 mM
same,[mM] M1,"[3]; M1=Sc, M2=Gd",5.882 mM
same,[mM] Lu,"[3]; M1=Sc, M2=Lu",4.903 mM
same,[mM] M1,"[3]; M1=Sc, M2=Lu",5.49 mM
same,[mM] Gd,"[3]; M1=Sm, M2=Gd",0.165 mM
same,[mM] M1,"[3]; M1=Sm, M2=Gd",0.179 mM
same,[mM] Lu,"[3]; M1=Sm, M2=Lu",4.229 mM
same,[mM] M1,"[3]; M1=Sm, M2=Lu",0.305 mM
same,[mM] Gd,"[3]; M1=Tb, M2=Gd",0.162 mM
same,[mM] M1,"[3]; M1=Tb, M2=Gd",0.235 mM
same,[mM] Lu,"[3]; M1=Tb, M2=Lu",5.094 mM
same,[mM] M1,"[3]; M1=Tb, M2=Lu",5.272 mM
same,[mM] Gd,"[3]; M1=Tm, M2=Gd",0.239 mM
same,[mM] M1,"[3]; M1=Tm, M2=Gd",2.653 mM
same,[mM] Lu,"[3]; M1=Tm, M2=Lu",5.423 mM
same,[mM] M1,"[3]; M1=Tm, M2=Lu",5.453 mM
same,[mM] Gd,"[3]; M1=Y, M2=Gd",0.183 mM
same,[mM] M1,"[3]; M1=Y, M2=Gd",0.471 mM
same,[mM] Lu,"[3]; M1=Y, M2=Lu",5.188 mM
same,[mM] M1,"[3]; M1=Y, M2=Lu",5.24 mM
same,[mM] Gd,"[3]; M1=Yb, M2=Gd",0.279 mM
same,[mM] M1,"[3]; M1=Yb, M2=Gd",4.218 mM
same,[mM] Lu,"[3]; M1=Yb, M2=Lu",5.148 mM
same,[mM] M1,"[3]; M1=Yb, M2=Lu",5.226 mM
same,[mM] M1,[4]; M1/M2=Eu/Y,0.118 mM
same,[mM] M2,[4]; M1/M2=Eu/Y,0.265 mM
same,[mM] M1,[4]; M1/M2=La/Ce,0.603 mM
same,[mM] M2,[4]; M1/M2=La/Ce,0.388 mM
same,[mM] M1,[4]; M1/M2=Nd/Ce,0.397 mM
same,[mM] M2,[4]; M1/M2=Nd/Ce,0.038 mM
same,[mM] M1,[4]; M1/M2=Nd/Dy,0.204 mM
same,[mM] M2,[4]; M1/M2=Nd/Dy,0.302 mM
same,[mM] M1,[4]; M1/M2=Nd/La,0.177 mM
same,[mM] M2,[4]; M1/M2=Nd/La,0.559 mM
same,[mM] M1,[4]; M1/M2=Nd/Pr,0.530 mM
same,[mM] M2,[4]; M1/M2=Nd/Pr,0.572 mM
same,[mM] M1,[4]; M1/M2=Nd/Tb,0.325 mM
same,[mM] M2,[4]; M1/M2=Nd/Tb,0.142 mM
same,[mM] M1,[4]; M1/M2=Pr/Ce,0.186 mM
same,[mM] M2,[4]; M1/M2=Pr/Ce,0.285 mM
same,[mM] M1,[4]; M1/M2=Pr/Dy,0.216 mM
same,[mM] M2,[4]; M1/M2=Pr/Dy,0.157 mM
same,[mM] M1,[4]; M1/M2=Pr/La,0.246 mM
same,[mM] M2,[4]; M1/M2=Pr/La,0.569 mM
same,[mM] M1,[4]; M1/M2=Tb/Dy,0.216 mM
same,[mM] M2,[4]; M1/M2=Tb/Dy,0.284 mM
same,[mM] M1,[4]; M1/M2=Tb/Eu,0.206 mM
same,[mM] M2,[4]; M1/M2=Tb/Eu,0.159 mM
same,[mM] M1,[4]; M1/M2=Tb/Pr,0.116 mM
same,[mM] M2,[4]; M1/M2=Tb/Pr,0.211 mM
same,[mM] M1,[4]; M1/M2=Tb/Y,0.143 mM
same,[mM] M2,[4]; M1/M2=Tb/Y,0.361 mM
